Data published in PMC8617944, “Preclinical Pharmacokinetics and Acute Toxicity in Rats of 5-{[(2E)-3-Bromo-3-carboxyprop-2-enoyl]amino}-2-hydroxybenzoic Acid: A Novel 5-Aminosalicylic Acid Derivative with Potent Anti-Inflammatory Activity” (Molecules, 2021).
Read-outs that look alike come from different tables or passages of the source.

Assay: Pharmacokinetic profiles after p.o., i.p. and i.v. administration
Assay type: in vivo, Wistar rats
Details: for absorption half-life: read-out: t1/2a, absorption half-life (converted); for Cmax: read-out: Cmax, maximum plasma concentration; for k el: read-out: Ke, elimination rate constant (converted); for MRT: read-out: MRT, mean residence time; for Tmax: read-out: tmax, time to maximum plasma concentration (converted); for Ka, absorption rate constant: non-compartmental
Experimental: On the same day as C1 administration, the rats (three groups, n = 6) were previously cannulated for compound administration by the p.o., i.p., and i.v. routes. A 24 G catheter was placed in the right lateral tail vein for blood collection. A first group of rats received a single dose of 50 mg/kg applied p.o. with a 20 G gavage needle. A dose of 75 mg/kg of C1 was injected i.p. into the rats in the second group. A single dose of 50 mg/kg was given i.v. to the third group by means of another catheter previously placed in the left lateral tail vein. The doses used in this study were selected based on previous pharmacokinetic studies reported in rats for 5-ASA [60] or for derivatives of this compound [61]. Animals were provided with the standard diet 4 h after dosing. […] The volume of blood removed was supplemented with an equal volume of 0.9% sodium chloride solution. The blood samples were centrifuged at 8000 rpm for 15 min to harvest 100 μL of plasma.
Plasma samples were processed immediately. Briefly, 450 µL of acetonitrile was added to 100 µL of plasma and vortexed for 5 min. Subsequently, 450 µL of methanol was added, and the sample was vortexed again, followed by centrifugation to precipitate the proteins. Finally, 10 µL of the supernatant were used for evaluation of the plasma concentration of C1 by RP-HPLC with the UV detection method, previously validated for the pharmacokinetic and complementary assays herein performed.
The plasma concentration–time data were plotted. […] Pharmacokinetic parameters of C1 were calculated on Kinetica 5.0 software (Adept Scientific Ltd), including the maximum plasma concentration (Cmax), time to maximum plasma concentration (tmax), elimination half-life (t1/2e), the area under the plasma concentration-time curve from time zero to the last measurable concentration (AUC0-t), the area under the plasma concentration-time curve from time zero to infinity (AUCtot), mean residence time (MRT), clearance (CL), and apparent volume of distribution (Vd).

[1] = Wistar, rat, plasma, ip, 75 mg/kg, i.p. 75 mg/kg, n = 6
[2] = Wistar, rat, plasma, ip, 75 mg/kg, plasma, i.p. 75 mg/kg, n = 6, read-out: Average Concentration
[3] = Wistar, rat, plasma, ip, 75 mg/kg, plasma, i.p. 75 mg/kg, individual rats, read-out: Concentration (µg/mL), Rat 1-6
[4] = Wistar, rat, plasma, ip, i.p. 75 mg/kg, rats
[5] = Wistar, rat, plasma, iv, 50 mg/kg, i.v. 50 mg/kg, n = 6
[6] = Wistar, rat, plasma, iv, 50 mg/kg, plasma, i.v. 50 mg/kg, n = 6, read-out: Average Concentration
[7] = Wistar, rat, plasma, iv, 50 mg/kg, plasma, i.v. 50 mg/kg, individual rats, read-out: Concentration (µg/mL), Rat 1-6
[8] = Wistar, rat, plasma, iv, i.v. 50 mg/kg, rats
[9] = Wistar, rat, plasma, po, 50 mg/kg, i.g. (p.o.) 50 mg/kg, n = 6
[10] = Wistar, rat, plasma, po, 50 mg/kg, plasma, i.g. (p.o.) 50 mg/kg, individual rats, read-out: Concentration (µg/mL), Rat 1-6
[11] = Wistar, rat, plasma, po, 50 mg/kg, plasma, i.g. (p.o.) 50 mg/kg, n = 6, read-out: Average Concentration
[12] = Wistar, rat, plasma, po, p.o. 50 mg/kg, rats
[13] = two-compartment model, Kinetica 5.0

SMILES: O=C(/C=C(/Br)C(=O)O)Nc1ccc(O)c(C(=O)O)c1 [Compound C1, 5-{[(2E)-3-bromo-3-carboxyprop-2-enoyl]amino}-2-hydroxybenzoic acid]
- concentration at 5 min [1]: 15900 ng/mL
- concentration at 10 min [1]: 17600 ng/mL
- concentration at 30 min [1]: 19900 ng/mL
- concentration at 45 min [1]: 17700 ng/mL
- concentration at 60 min [1]: 15200 ng/mL
- concentration at 90 min [1]: 11200 ng/mL
- concentration at 120 min [1]: 9000 ng/mL
- concentration at 180 min [1]: 5200 ng/mL
- concentration at 240 min [1]: 2900 ng/mL
- absorption half-life (Wistar, rat, plasma, ip, 75 mg/kg, i.p. 75 mg/kg, rats): 1.3 ± 0.5 h
- half-life (Wistar, rat, plasma, ip, 75 mg/kg, i.p. 75 mg/kg, rats, read-out: t1/2e, elimination half-life (converted)): 1.4 ± 0.2 h
- concentration at 20 min [2]: 19.8 µg/mL
- concentration at 300 min [3]: 0 µg/mL
- concentration at 300 min [2]: 0 µg/mL
- concentration at 360 min [3]: 0 µg/mL
- concentration at 360 min [2]: 0 µg/mL
- concentration at 540 min [3]: 0 µg/mL
- concentration at 540 min [2]: 0 µg/mL
- concentration at 720 min [3]: 0 µg/mL
- concentration at 720 min [2]: 0 µg/mL
- Cmax [4]: 22000 ± 1000 ng/mL
- k el [4]: 0.000139 s⁻¹
- MRT [4]: 3.1 ± 0.9 h
- Tmax [4]: 0.55 h
- concentration at 5 min [5]: 10500 ng/mL
- concentration at 10 min [5]: 7800 ng/mL
- concentration at 30 min [5]: 5300 ng/mL
- concentration at 45 min [5]: 4200 ng/mL
- concentration at 60 min [5]: 4000 ng/mL
- concentration at 90 min [5]: 3400 ng/mL
- concentration at 120 min [5]: 2200 ng/mL
- concentration at 180 min [5]: 1500 ng/mL
- concentration at 240 min [5]: 1400 ng/mL
- half-life (Wistar, rat, plasma, iv, 50 mg/kg, i.v. 50 mg/kg, rats, read-out: t1/2e, elimination half-life (converted)): ~0.9 h
- concentration at 20 min [6]: 6 µg/mL
- concentration at 300 min [6]: 1.2 µg/mL
- concentration at 360 min [6]: 0.756 µg/mL
- concentration at 540 min [7]: 0 µg/mL
- concentration at 540 min [6]: 0 µg/mL
- concentration at 720 min [7]: 0 µg/mL
- concentration at 720 min [6]: 0 µg/mL
- clearance (Wistar, rat, plasma, iv, i.v. 50 mg/kg, rats, read-out: CL, clearance): 24 ± 5 mL/min
- C0 (Wistar, rat, plasma, iv, i.v. 50 mg/kg, rats, read-out: Cp^0, initial plasma concentration): 11000 ± 1900 ng/mL
- k el [8]: 0.000222 s⁻¹
- MRT [8]: 1.7 ± 0.4 h
- Vd (Wistar, rat, plasma, iv, i.v. 50 mg/kg, rats, read-out: Vd, volume of distribution): 5.2 ± 0.9 L/kg
- bioavailability (Wistar, rat, plasma, oral, 50 mg/kg, p.o. 50 mg/kg vs i.v. 50 mg/kg, rats, read-out: absolute oral bioavailability): ~77%
- concentration at 5 min [9]: 2200 ng/mL
- concentration at 10 min [9]: 2200 ng/mL
- concentration at 30 min [9]: 2500 ng/mL
- concentration at 45 min [9]: 2100 ng/mL
- concentration at 60 min [9]: 2100 ng/mL
- concentration at 90 min [9]: 1800 ng/mL
- concentration at 120 min [9]: 1500 ng/mL
- concentration at 180 min [9]: 1000 ng/mL
- concentration at 240 min [9]: 665 ng/mL
- absorption half-life (Wistar, rat, plasma, po, 50 mg/kg, p.o. 50 mg/kg, rats): 1.4 ± 0.3 h
- half-life (Wistar, rat, plasma, po, 50 mg/kg, p.o. 50 mg/kg, rats, read-out: t1/2e, elimination half-life (converted)): > 2.5 h
- concentration at 20 min [10]: 2.2 µg/mL
- concentration at 20 min [11]: 2.6 µg/mL
- concentration at 300 min [11]: 0.5 µg/mL
- concentration at 360 min [11]: 0.34 µg/mL
- concentration at 540 min [11]: 0.136 µg/mL
- concentration at 600 min [10]: 0 µg/mL
- concentration at 600 min [11]: 0 µg/mL
- concentration at 720 min [10]: 0 µg/mL
- concentration at 720 min [11]: 0 µg/mL
- Cmax [12]: 2800 ± 100 ng/mL
- k el [12]: 0.000111 s⁻¹
- MRT [12]: 1.7 ± 0.2 h
- Tmax [12]: 0.55 h
- half-life (Wistar, rat, plasma, two-compartment model, Kinetica 5.0, read-out: elimination half-life α (t1/2α)): 0.267 h
- half-life (Wistar, rat, plasma, two-compartment model, Kinetica 5.0, read-out: elimination half-life β (t1/2β) (converted)): 3 h
- AUCtot, area under the plasma concentration-time curve from time zero to infinity (i.p. 75 mg/kg, rats): 2780 ± 69 µg·min/mL
- Ka, absorption rate constant (i.p. 75 mg/kg, rats): 1.4 ± 0.2 h⁻¹
- AUCtot, area under the plasma concentration-time curve from time zero to infinity (i.v. 50 mg/kg, rats): 806 ± 72 µg·min/mL
- AUCtot, area under the plasma concentration-time curve from time zero to infinity (p.o. 50 mg/kg, rats): 618 ± 63 µg·min/mL
- Ka, absorption rate constant (p.o. 50 mg/kg, rats): 0.9 ± 0.1 h⁻¹
- t1/2e, elimination half-life (p.o. 50 mg/kg, rats, 50 mg/kg): 2.5 ± 0.6 h
- K12 [13]: 0.018 min⁻¹
- K21 [13]: 0.019 min⁻¹
- α [13]: 0.042 min⁻¹
